From patent publication US11691951B2 (Curtana Pharmaceuticals, Inc., priority 2015, dated 2023)
Structures can show the parent of a compound that is named as a salt.

Tests used:
[1] = tested on: GBM4 cells (human glioblastoma neurosphere cell culture); assay: GBM4 viability assay (Cell Titer Glo luminescence, 3 days); assay type: cell-based; conditions: 72 h, 3 days incubation
Description: Example 283: GBM4 and GBM8 Viability Assay
Cell culture medium was prepared from a NSA proliferation kit (Neurocult) and NeuroCult supplements (Stemcell Tech Cat. #05751) and treated with 20 μL of 10 μg/mL rh EGF, 10 μL of 10 μg/mL rh bFGF and 10 μL of 0.2% Heparin. In this medium, human glioblastoma cells were cultured in ultra-low attachment tissue culture flasks until 1×10^6 cells ml was achieved (GBM4 and GBM8 are distinct neurosphere cell cultures derived from these human patient tissues). GBM4 and GBM8 cells were dissociated and 10 mL of media containing 4000 human glioblastoma cells per 90 uL were transferred to an ultra-low binding 96-well plate and incubated at 37° C. overnight. On the following day, 10 μL of a 1% DMSO solution of test compound in assay medium was added to wells containing the cell suspension and the mixture incubated at 37° C. for 3 days. At this time, the plate was removed from the incubator and allowed to reach room temperature. After about 30 minutes, 50 μL of Cell Titer Glo solution was added to each well and the plate shaken for 1 minute at low speed. After 10 minutes luminescence was recorded using a Tecan Safire2 reader.
Reduction in luminescence compared to DMSO only control wells was used to determine the percentage inhibition of cell growth. IC50s were calculated using the % inhibition of luminescence for serial dilutions of compounds fitted to a 4-parameter fit within the Prism (San Diego) curve fitting program.

[2] = tested on: GBM8 cells (human glioblastoma neurosphere cell culture); assay: GBM8 viability assay (Cell Titer Glo luminescence, 3 days); assay type: cell-based; conditions: 72 h, 3 days incubation
How it was run: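 Patient-derived neurosphere cells (4000/well) in NeuroCult medium with rh EGF, rh bFGF and heparin, ultra-low attachment, dosed after overnight settling; 3 days at 37 °C. CellTiter-Glo luminescence versus DMSO controls gave % growth inhibition; IC50 from 4-parameter fit of serial dilutions.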

IC50 [1] [µM]	IC50 [2] [µM]	SMILES
< 1	< 1	Cc1cc(NC2CCCNC2)nc(NC(=O)Nc2ccc(Cl)c(Cl)c2)n1 (racemic) [Compound 24, (±)-2-[3-(3,4-dichlorophenyl)ureido]-6-methyl-4-(3-piperidylamino)pyrimidine hydrochloride]
10 to 30	10 to 30	CCN1CCCC(Nc2cc(C)nc(NC(=O)Nc3ccc(Cl)c(Cl)c3)n2)C1 (racemic) [Compound 30, (±)-2-[3-(3,4-dichlorophenyl)ureido]-4-(1-ethyl-piperidin-3-yl-amino)-6-methylpyrimidine]
10 to 30	1 to 10	CCN1CCCC(Nc2cc(C)nc(N3CCN(c4ccc(Cl)c(Cl)c4)C3=O)n2)C1 (racemic) [Compound 34, (±)-1-(3,4-dichlorophenyl)-3-[4-(1-ethyl-3-piperidylamino)-6-methyl-2-pyrimidinyl]-2-imidazolidinone]
10 to 30	1 to 10	Cc1cc(N2CCOCC2)nc(NC(=O)Nc2ccc(Cl)c(Cl)c2)n1 [Compound 4, 1-(3,4-dichlorophenyl)-3-(6-methyl-4-morpholino-2-pyrimidinyl) Urea]
1 to 10	1 to 10	CNCCN(C)c1cc(C)nc(NC(=O)Nc2ccc(Cl)c(Cl)c2)n1 [Compound 6, 1-(N-methyl{2-[3-(3,4-dichlorophenyl)ureido]-6-methyl-4-pyrimidinyl}amino)-2-(methylamino)ethane]
< 1	< 1	Cc1cc(NCCCO)nc(NC(=O)Nc2ccc(Cl)c(Cl)c2)n1 [Compound 7, 3-{2-[3-(3,4-dichlorophenyl)ureido]-6-methyl-pyrimidin-4-yl}-aminopropanol]
< 1	< 1	Cc1cc(NCCCN(C)C)nc(NC(=O)Nc2ccc(Cl)c(Cl)c2)n1 [Compound 8, 1-{2-[3-(3,4-Dichlorophenyl)ureido]-6-methyl-pyrimidin-4-yl}-amino-3-(dimethylamino)propane]
1 to 10	1 to 10	Cc1cc(Nc2ccncc2)nc(NC(=O)Nc2ccc(Cl)c(Cl)c2)n1 [Compound 39, 2-[3-(3,4-dichlorophenyl)ureido]-6-methyl-4-(4-pyridylamino)-pyrimidine]
